Test results from US20250312497A1, “METHOD OF TREATING PROSTATE CANCER” (Novartis AG, priority 2022, published 2025).

Experiments:
[1] = system: metastatic castration-resistant prostate cancer; settings: cited from earlier work
[2] = system: PSMA-positive mCRPC participants; assay: PSMAfore phase III: patient disposition, treatment discontinuation; format: in vivo, human
Description: Patient disposition (Full analysis set)

## O=C([O-])CN1CCN(CC(=O)[O-])CCN(CC(=O)NCC2CCC(C(=O)N[C@@H](Cc3ccc4ccccc4c3)C(=O)NCCCC[C@H](NC(=O)N[C@@H](CCC(=O)O)C(=O)O)C(=O)O)CC2)CCN(CC(=O)[O-])CC1.[177Lu+3] (stereo partly shown) [[177Lu]Lu-PSMA-617, lutetium (177Lu) vipivotide tetraxetan]
[1]; 27 participants with measurable disease
  objective response rate in measurable disease by RECIST (CR and PR): 56%
[1]; 95% CI 10.5-18.0
  median overall survival: 13.3 months
[1]; up to 4 cycles of 4-8 GBq every 6 weeks
  participants with reduction of PSA of 80% or more: 44%
[1]; up to 4 cycles of 4-8 GBq every 6 weeks, post-taxane, post abiraterone/enzalutamide
  participants with PSA response (reduction in PSA of at least 50%): 64%
[2]; DCO 2 Oct 2022
  treatment discontinuation due to adverse event: 3.9%
[2]; DCO 2 Oct 2022, full analysis set
  Reason for discontinuation: Adverse event: 9 (3.9) n (%)
[2]; DCO 21 Jun 2023
  treatment discontinuation due to adverse event: 5.6%
